In US20240132461A1, “FLAVONE DEAZA SPERMIDINE ANALOGUES AND THEIR USE TREATING CANCER” (FLORATEK PHARMA S.A., priority 2021, published 2024):

Experiments:
SC6 = assay: PDX cytotoxicity assay, small cell lung carcinoma PDX SC6; format: cell-based
Method: (§1) PDX-derived cell cultures were obtained from tumors explanted from mice and isolated by mechanical and enzymatic dissociation. […] Cells were harvested and seeded in 96-wells plates at a density of 1.25 to 5×10^3 cells/well for cytotoxicity assays. Cells were incubated 48 h at 37° C. prior to addition of test molecules and vehicle (DMSO, 0.1%) at desired final concentrations. Cell viability was assessed before drugs' addition (T0) and 5 days after test molecules addition by measuring ATP cell content using CellTiter-Glo® Luminescent Cell Viability Assay (Promega) according to the manufacturer's instructions. Luciferase activity was measured on a luminometer (PerkinElmer® EnVision™). Each concentration of compounds was tested in triplicate.
(§2) Viability was calculated as a percentage of ATP value compared to vehicle treated controls.
(§3) For PDX primary cell cultures, the tumour tissue was washed with PBS containing antibiotic-antimycotic and non-tumour tissue and necrotic tumour tissues were separated. The tumour tissue was transferred to a new dish and cut into 1˜2 mm^3 fragments, resuspended in RPMI-1640 medium and centrifuged at 1,200 rpm for 6 min at room temperature. The pelleted material was resuspended with 15 mL of Tumour Cell Digestion Solution and incubated at 37° C. for 1 hour with agitation. […]

DOHH-2 = assay: Cell viability assay, lymphoma cell line DOHH-2; format: cell-based; conditions: Homo sapiens; DOHH-2 lymphoma cell line
Method: (§4) Antitumor activity of the compounds and doxorubicin as a positive control was assessed by using the CellTiter-Blue Cell Viability Assay (Promega, #G8082) or CellTiter-Glow® Luminescent Cell Viability assay (Promega # G7572) according to the manufacturer's instructions. The compounds were tested at 5 or 6 concentrations in half-log increments (highest concentration 30 μM-100 μM) in duplicate or triplicate well conditions.
(§5) Tumor cells were grown at 37° C. in a humidified atmosphere with 5% CO2 in RPMI 1640 or DMEM medium, supplemented with 10% (v/v) fetal calf serum and 50 μg/ml gentamicin for up to 20 passages, and were passaged once or twice weekly. Cells were harvested using TrypLE or PBS buffer containing 1 mM EDTA, and the percentage of viable cells is determined using a CASY Model TT cell counter (OMNI Life Science). Cells were harvested from exponential phase cultures, counted and plated in 96 well flat-bottom microtiter plates at a cell density depending on the cell line's growth rate (4,000-20,000 cells/well depending on the cell line's growth rate, up to 60,000 for hematological cancer cell lines) in RPMI 1640 or DMEM medium supplemented with 10% (v/v) fetal calf serum and 50 μg/ml gentamicin (140 μl/well). […] Viability of cells was quantified by the CellTiter-Blue® cell viability assay (Promega G8081) or CellTiter-Glow® Luminescent Cell Viability assay (Promega # G7572). […]

PIM1 = target: T1, PIM1 (Homo sapiens, UniProt P11309); assay: KINOMEscan competition binding assay, PIM1
T1 construct: purchased Eurofins (KINOMEscan assay service); host or cells: E. coli BL21-derived (T7 phage) or HEK-293
Excerpt: (§6) The Hill Slope was set to −1.

U-87MG = assay: Cell viability assay, brain carcinoma cell line U-87MG; format: cell-based; conditions: Homo sapiens; U-87MG brain carcinoma cell line, 72 h, absolute IC50
Method: as §4
(§7) Tumor cells were grown at 37° C. in a humidified atmosphere with 5% CO2 in RPMI 1640 or DMEM medium, supplemented with 10% (v/v) fetal calf serum and 50 μg/ml gentamicin for up to 20 passages, and were passaged once or twice weekly. Cells were harvested using TrypLE or PBS buffer containing 1 mM EDTA, and the percentage of viable cells is determined using a CASY Model TT cell counter (OMNI Life Science). Cells were harvested from exponential phase cultures, counted and plated in 96 well flat-bottom microtiter plates at a cell density depending on the cell line's growth rate (4,000-20,000 cells/well depending on the cell line's growth rate, up to 60,000 for hematological cancer cell lines) in RPMI 1640 or DMEM medium supplemented with 10% (v/v) fetal calf serum and 50 μg/ml gentamicin (140 μl/well). Cultures were incubated at 37° C. and 5% CO2 in a humidified atmosphere. After 24 h, 10 μl of test compounds or control medium are added, and left on the cells for another 72 h. Compounds were serially diluted in DMSO, transferred in cell culture medium, and added to the assay plates. The DMSO concentration was kept constant at <0.3% v/v across the assay plate. Viability of cells was quantified by the CellTiter-Blue® cell viability assay (Promega G8081) or CellTiter-Glow® Luminescent Cell Viability assay (Promega # G7572). Fluorescence (FU) was measured by using the EnSpire® multimode plate reader (Perkin Elmer) (excitation λ=570 nm, emission λ=600 nm) or luminescent detection of ATP in viable cells was used as parameter for proliferation. Luminescence was measured with the microplate luminometer (Promega or Perkin Elmer).
(§8) Sigmoidal concentration-response curves were fitted to the data points (test-versus-control, T/C values) obtained for each tumor model using 4 parameter non-linear curve fit (Charles River DRS Datawarehouse Software) or with GraphPad prism 5.02 software. IC50 values are reported as absolute IC50 values, being the concentration of test compound at the intersection of the concentration-response curves with T/C=50%

SNARK = target: T2, SNARK (Homo sapiens, UniProt Q9H093); assay: KINOMEscan competition binding assay, SNARK
T2 construct: purchased Eurofins (KINOMEscan assay service); host or cells: E. coli BL21-derived (T7 phage) or HEK-293
Excerpt: as §6

CO-04-0700 = assay: PDX cytotoxicity assay, colon PDX CO-04-0700; format: cell-based
Method: as §1, §2, §3

GA-10 = assay: Cell viability assay, lymphoma cell line GA-10; format: cell-based; conditions: Homo sapiens; GA-10 lymphoma cell line
Method: as §4, §5

ES-06-0122 = assay: PDX cytotoxicity assay, esophagus PDX ES-06-0122; format: cell-based
Method: as §1, §2, §3

breast cancer cell = assay: Cell viability assay, breast cancer cell lines (summary); format: cell-based; conditions: summary of Tables 4A and 4B; read-out: IC50s, breast cancer cell growth
Method: as §4, §7, §8

LU-01-0025 = assay: PDX cytotoxicity assay, lung carcinoma PDX LU-01-0025; format: cell-based
Method: as §1, §2, §3

leukaemia cell = assay: Cell viability assay, leukaemia cell lines (summary); format: cell-based; conditions: summary of Table 6A; read-out: IC50, leukaemia cell growth
Method: as §4, §5

NALM-6 = assay: Cell viability assay, leukaemia cell line NALM-6; format: cell-based; conditions: Homo sapiens; NALM-6 leukaemia cell line
Method: as §4, §5

lung carcinoma cell = assay: Cell viability assay, lung carcinoma cell lines (summary); format: cell-based; conditions: summary of Tables 7A-E; read-out: IC50s, lung carcinoma cell growth
Method: as §4, §7, §8

NAWALMA = assay: Cell viability assay, lymphoma cell line NAWALMA; format: cell-based
Method: as §4, §5

HN-13-0020 = assay: PDX cytotoxicity assay, head and neck PDX HN-13-0020; format: cell-based
Method: as §1, §2, §3

HBCx-3 = assay: PDX cytotoxicity assay, breast PDX HBCx-3; format: cell-based
Method: as §1, §2, §3

MOLT-16 = assay: Cell viability assay, leukaemia cell line MOLT-16; format: cell-based; conditions: Homo sapiens; MOLT-16 leukaemia cell line
Method: as §4, §5

CH-17-0091 = assay: PDX cytotoxicity assay, bile duct PDX CH-17-0091; format: cell-based
Method: as §1, §2, §3

ST-02-0322 = assay: PDX cytotoxicity assay, stomach PDX ST-02-0322; format: cell-based
Method: as §1, §2, §3

What does the source list for `COc1c(O)ccc2c(=O)cc(-c3ccc(CNCCCCNCCCN)cc3)oc12` [SND164]?
IC50 (SC6): 3.64 µM; IC50 (DOHH-2): 4.3 µM; Kd (PIM1): 0.58 µM; IC50 (U-87MG): 5.7 µM; Kd (SNARK): 0.9 µM; IC50 (CO-04-0700): 7 µM; IC50 (GA-10): 3.9 µM; IC50 (ES-06-0122): 5.7 µM; IC50 (breast cancer cell): < 10 µM; IC50 (LU-01-0025): 5 µM; IC50 (leukaemia cell): < 10 µM; IC50 (NALM-6): 4.45 µM; IC50 (lung carcinoma cell): < 20 µM; IC50 (NAWALMA): 2.6 µM; IC50 (HN-13-0020): 2.7 µM; IC50 (HBCx-3): 10 µM; IC50 (MOLT-16): 4.36 µM; IC50 (CH-17-0091): 13.8 µM; IC50 (ST-02-0322): 5.45 µM
